System: rhythmic bladder contractions in rats
Assay: Inhibitory effect against rhythmic bladder contractions in rats
Format: in vivo
Details: anesthetized female SD rats, intravenous, dose 0.003 mg/kg body weight
Protocol: Inhibitory Effect Against Rhythmic Bladder Contractions in Rats
Female SD rats were anesthetized with an intraperitoneal administration of urethane (1.0 g/kg). A polyethylene tube was inserted from the urethra to the bladder and the tube was fixed by ligation. Then physiological saline was appropriately infused (infusion rate: about 0.2 ml/min., maximum: about 1.5 ml/animal) through the tube to cause rhythmic bladder contractions. The rhythmic bladder contractions were monitored by measuring the intravesical pressure through a polyethylene tube inserted into the bladder. After confirming that stable rhythmic bladder contractions occurred at least 10 times, a vehicle containing a prescribed dose of a test compound was intravenously administration at a dose of 1 ml/kg. In cases where the intravesical pressure, within 10 minutes after the administration of the test compound, decreased to 50% or less of the intravesical pressure immediately […] the administration, the test compound was judged as having inhibitory effect against urinary bladder contractions, and the time period until the intravesical pressure returned to more than 50% was defined as inhibitory time of rhythmic bladder contractions. As the vehicle for administration, physiological saline was used for test compounds 4, 7, 8, 9, 10, 13, 29, 30, 31, 33, 34, 75, 76, 79, 80, 81, 82, 84, 89, 90, 91, 93, 94, 95, 110 and 111, aqueous 10% dimethylsulfoxide (DMSO) solution was used for test compounds 11, 12, 14, 15, 16, 17, 18, 20, 21, 23, 28, 46, 47, 50, 55, 56, 57, 58, 59, 60, 61, 62, 63, 64, 65, 66, 68, 69, 70, 71, 72, 73, 74, 77, 78, 83, 85, 86, 87, 88, 92, 96, 97, 98, 99, 100, […], 103, 104, 105, 106, 107, 108 and […], aqueous 20% dimethylsulfoxide (DMSO) solution was used for test compounds 1, 2, 67 and 101, and aqueous 5% xylitol solution was used for test compounds 5 and 35. The aqueous 10% DMSO solution, aqueous 20% DMSO solution and the aqueous 5% xylitol solution per se, which may influence on the inhibitory time of rhythmic bladder contractions, were also tested at a dose of 1 ml/kg. With any of the compounds, prolongation of the inhibitory time of rhythmic bladder contractions was observed when compared with that obtained in the group to which the vehicle alone was administered.

Question: For `O=C1c2cccc(F)c2C(=O)N1[C@H]1CC[C@@]2(O)[C@H]3Cc4ccc(O)c5c4[C@@]2(CCN3CC2CC2)[C@H]1O5` [Compound 67, N-(17-cyclopropylmethyl-4,5α-epoxy-3,14-dihydroxymorphinan-6α-yl)-3-fluorophthalimide], which “Mean Inhibitory Time of Rhythmic Bladder Contractions” value (“Mean Inhibitory Time” below) is on record?
Answer: 27.3 min

Same assay, conditions: anesthetized female SD rats, intravenous, dose 0.01 mg/kg body weight

Question: Which “Mean Inhibitory Time” value does the source give for `O=C1c2ccccc2S(=O)(=O)N1[C@@H]1CC[C@@]2(O)[C@H]3Cc4ccc(O)c5c4[C@@]2(CCN3CC2CC2)[C@H]1O5` [Compound 108, N-(17-cyclopropylmethyl-4,5α-epoxy-3,14-dihydroxy-morphinan-6β-yl)-O-sulfonebenzimide] here?
Answer: 25.6 min

Question: Which “Mean Inhibitory Time” value does the source give for `CC1=C(C)C(=O)N([C@H]2CC[C@@]3(O)[C@H]4Cc5ccc(O)c6c5[C@@]3(CCN4CC3CC3)[C@H]2O6)C1=O` [Compound 76, N-(17-cyclopropylmethyl-4,5α-epoxy-3,14-dihydroxy-morphinan-6α-yl)-2,3-dimethyl-maleimide] here?
Answer: 16.7 min

Question: How did the “Mean Inhibitory Time” value turn out when `C=CCN1CC[C@]23c4c5ccc(O)c4O[C@H]2[C@H](N2C(=O)c4cccc(F)c4C2=O)CC[C@@]3(O)[C@H]1C5` [Compound 62, N-(17-allyl-4,5α-epoxy-3,14-dihydroxymorphinan-6β-yl)-3-fluorophthalimide] was run?
Answer: 15.3 min

Same assay, conditions: anesthetized female SD rats, intravenous, dose 0.03 mg/kg body weight

Question: With `C=CCN1CC[C@]23c4c5ccc(O)c4O[C@H]2[C@H](N2C(=O)c4ccc(F)cc4C2=O)CC[C@@]3(O)[C@H]1C5` [Compound 58, N-(17-allyl-4,5α-epoxy-3,14-dihydroxymorphinan-6β-yl)-4-fluorophthalimide] as the compound, how does the “Mean Inhibitory Time” value read?
Answer: 19.3 min

Question: Which “Mean Inhibitory Time” value does the source give for `Cc1ccc2c(c1)C(=O)N([C@@H]1CC[C@@]3(O)[C@H]4Cc5ccc(O)c6c5[C@@]3(CCN4CC3CC3)[C@H]1O6)C2=O` [Compound 12, N-(17-cyclopropylmethyl-4,5α-epoxy-3,14-dihydroxy-morphinan-6β-yl)-4-methylphthalimide] here?
Answer: 16.5 min

Same assay, conditions: anesthetized female SD rats, intravenous, dose 0.1 mg/kg body weight

Question: With `O=C1C2=C(CCCC2)CN1[C@@H]1CC[C@@]2(O)[C@H]3Cc4ccc(O)c5c4[C@@]2(CCN3CC2CC2)[C@H]1O5` [Compound 83, 2-(17-cyclopropylmethyl-4,5α-epoxy-3,14-dihydroxy-morphinan-6β-yl)-2,3,4,5,6,7-hexahydro-isoindol-1-one] as the compound, how does the “Mean Inhibitory Time” value read?
Answer: 10.6 min

Question: How did the “Mean Inhibitory Time” value turn out when `CN1CCN([C@@H]2CC[C@@]3(O)[C@H]4Cc5ccc(O)c6c5[C@@]3(CCN4C)[C@H]2O6)c2ccccc21` [Compound 9, 4,5α-epoxy-6β-(3,4-dihydro-1-methyl-1H-quinoxalino)-17-methyl-morphinan-3,14-diol] was run?
Answer: 9.1 min

Question: `O=C1c2cccnc2C(=O)N1[C@@H]1CC[C@@]2(O)[C@H]3Cc4ccc(O)c5c4[C@@]2(CCN3CC2CC2)[C@H]1O5` [Compound 80, N-(17-cyclopropylmethyl-4,5α-epoxy-3,14-dihydroxy-morphinan-6β-yl)-2,3-pyridinedicarboimide] was tested. Which “Mean Inhibitory Time” value did it give?
Answer: 1.1 min

Question: `CN1CC[C@]23c4c5ccc(O)c4O[C@H]2[C@H](N2CCOc4ccccc42)CC[C@H]3[C@H]1C5` [Compound 4, 4,5α-epoxy-6β-(3,4-dihydro-2H-benzo [1,4]oxazino)-17-methyl-morphinan-3-ol] was tested. Which “Mean Inhibitory Time” value did it give?
Answer: 15.6 min

Question: `O=C1C(c2ccccc2)=C(c2ccccc2)C(=O)N1[C@@H]1CC[C@@]2(O)[C@H]3Cc4ccc(O)c5c4[C@@]2(CCN3CC2CC2)[C@H]1O5` [Compound 70, N-(17-cyclopropylmethyl-4,5α-epoxy-3,14-dihydroxymorphinan-6β-yl)-2,3-diphenylmaleimide] was tested. Which “Mean Inhibitory Time” value did it give?
Answer: 8.9 min

Question: For `O=C1[C@H]2CC=CC[C@H]2C(=O)N1[C@@H]1CC[C@@]2(O)[C@H]3Cc4ccc(O)c5c4[C@@]2(CCN3CC2CC2)[C@H]1O5` [Compound 78, N-(17-cyclopropylmethyl-4,5α-epoxy-3,14-dihydroxy-morphinan-6β-yl)-cis-1,2,3,6-tetrahydrophthalimide], which “Mean Inhibitory Time” value is on record?
Answer: 13.4 min

Question: `CN1CC[C@]23c4c5ccc(O)c4O[C@H]2[C@H](N2CCCc4ccccc42)CC[C@H]3[C@H]1C5` [Compound 1, 4,5α-epoxy-6β-tetrahydroquinolino-17-methyl-morphinan-3-ol] was tested. Which “Mean Inhibitory Time” value did it give?
Answer: 11.7 min

Question: How did the “Mean Inhibitory Time” value turn out when `CC(=O)O[C@@]12CC[C@@H](N3CC4=C(CCCC4)C3=O)[C@@H]3Oc4c(O)ccc5c4[C@@]31CCN(CC1CC1)[C@@H]2C5` [Compound 93, N-(14-acetoxy-17-cyclopropylmethyl-4,5α-epoxy-3-hydroxymorphinan-6β-yl)-2,3,4,5,6,7-hexahydro-isoindol-1-one] was run?
Answer: 16.0 min

Question: Which “Mean Inhibitory Time” value does the source give for `O=C1[C@H]2C[C@H]2C(=O)N1[C@@H]1CC[C@@]2(O)[C@H]3Cc4ccc(O)c5c4[C@@]2(CCN3CC2CC2)[C@H]1O5` [Compound 79, N-(17-cyclopropylmethyl-4,5α-epoxy-3,14-dihydroxy-morphinan-6β-yl)-1,2-cyclopropanedicarboimide] here?
Answer: 2.1 min

Question: Which “Mean Inhibitory Time” value does the source give for `Nc1ccc2c(c1)C(=O)N([C@@H]1CC[C@@]3(O)[C@H]4Cc5ccc(O)c6c5[C@@]3(CCN4CC3CC3)[C@H]1O6)C2=O` [Compound 98, N-(17-cyclopropylmethyl-4,5α-epoxy-3,14-dihydroxy-morphinan-6β-yl)-4-amino-phthalimide] here?
Answer: 7.2 min

Question: How did the “Mean Inhibitory Time” value turn out when `C=CCN1CC[C@]23c4c5ccc(O)c4O[C@H]2[C@H](N2C(=O)c4ccccc4C2=O)CC[C@@]3(OC(C)=O)[C@H]1C5` [Compound 92, N-(14-acetoxy-17-allyl-4,5α-epoxy-3-hydroxymorphinan-6β-yl)-phthalimide] was run?
Answer: 16.0 min

Question: How did the “Mean Inhibitory Time” value turn out when `O=C1[C@H]2CCCC[C@H]2C(=O)N1[C@@H]1CC[C@@]2(O)[C@H]3Cc4ccc(O)c5c4[C@@]2(CCN3CC2CC2)[C@H]1O5` [Compound 69, N-(17-cyclopropylmethyl-4,5α-epoxy-3,14-dihydroxymorphinan-6β-yl)-hexahydrophthalimide] was run?
Answer: 15.7 min

Question: With `Oc1ccc2c3c1O[C@H]1[C@H](N4CCc5ccccc54)CC[C@@]4(O)[C@@H](C2)N(CCc2ccccc2)CC[C@]314` [Compound 5, 4,5α-epoxy-6β-indolino-17-phenethyl-morphinan-3,14-diol] as the compound, how does the “Mean Inhibitory Time” value read?
Answer: 9.9 min

Question: With `COc1cccc2c1C(=O)N([C@@H]1CC[C@@]3(O)[C@H]4Cc5ccc(O)c6c5[C@@]3(CCN4CC3CC3)[C@H]1O6)C2=O` [Compound 102, N-(17-cyclopropylmethyl-4,5α-epoxy-3,14-dihydroxy-morphinan-6β-yl)-3-methoxy-phthalimide] as the compound, how does the “Mean Inhibitory Time” value read?
Answer: 15.6 min

Question: How did the “Mean Inhibitory Time” value turn out when `O=C1/C(=C/c2ccccc2)CCN1[C@@H]1CC[C@@]2(O)[C@H]3Cc4ccc(O)c5c4[C@@]2(CCN3CC2CC2)[C@H]1O5` [Compound 50, 1-(17-cyclopropylmethyl-4,5α-epoxy-3,14-dihydroxy-morphinan-6β-yl)-3-benzylidene-pyrrolidin-2-one] was run?
Answer: 12.8 min

Question: `O=c1c2ccccc2[nH]c(=S)n1[C@@H]1CC[C@@]2(O)[C@H]3Cc4ccc(O)c5c4[C@@]2(CCN3CC2CC2)[C@H]1O5` [Compound 105, 3-(17-cyclopropylmethyl-4,5α-epoxy-3,14-dihydroxy-morphinan-6β-yl)-2-thioxo-2,3-dihydro-1H-quinazolin-4-one] was tested. Which “Mean Inhibitory Time” value did it give?
Answer: 7.3 min

Question: How did the “Mean Inhibitory Time” value turn out when `C=CCN1CC[C@]23c4c5ccc(O)c4O[C@H]2[C@H](N2C(=O)c4ccc(N)cc4C2=O)CC[C@@]3(O)[C@H]1C5` [Compound 99, N-(17-allyl-4,5α-epoxy-3,14-dihydroxy-morphinan-6β-yl)-4-amino-phthalimide] was run?
Answer: 16.9 min

Same assay, conditions: anesthetized female SD rats, intravenous, dose 1.0 mg/kg body weight

Question: For `O=C1C/C(=C\c2ccccc2)C(=O)N1[C@@H]1CC[C@@]2(O)[C@H]3Cc4ccc(O)c5c4[C@@]2(CCN3CC2CC2)[C@H]1O5` [Compound 21, N-(17-cyclopropylmethyl-4,5α-epoxy-3,14-dihydroxy-morphinan-6β-yl)-2-benzylidene-succinimide], which “Mean Inhibitory Time” value is on record?
Answer: 19.0 min

Question: With `O=C1c2ccccc2C(=O)N1[C@@H]1CC[C@@]2(O)[C@H]3Cc4ccc(O)c5c4[C@@]2(CCN3)[C@H]1O5` [Compound 14, N-(4,5α-epoxy-3,14-dihydroxy-morphinan-6β-yl)-phthalimide] as the compound, how does the “Mean Inhibitory Time” value read?
Answer: 7.9 min

Question: For `CN1CC[C@]23c4c5ccc(O)c4O[C@H]2[C@H](N2CC(=O)Nc4ccccc42)CC[C@@]3(O)[C@H]1C5` [Compound 7, 4-(4,5α-epoxy-3,14-dihydroxy-17-methyl-morphinan-6β-yl)-3,4-dihydro-1H-quinoxalino-2-one], which “Mean Inhibitory Time” value is on record?
Answer: 3.8 min

Source: US7320984B2, “Remedies or preventives for urinary frequency or urinary incontinence and morphinan derivatives having nitrogen-containing heterocyclic group” (Toray Industries, Inc., priority 2002, dated 2008)
